Reference: US8501746B2, “Organic compounds” (Xenon Pharmaceuticals Inc., priority 2006, dated 2013)

First: Cc1nc(-n2ccc(OCc3ccccc3)cc2=O)sc1C(=O)NCc1cccnc1 [Example 3.25, 2-(4-(Benzyloxy)-2-oxopyridin-1(2H)-yl)-4-methyl-N-(pyridin-3-ylmethyl)thiazole-5-carboxamide]
Second: Cc1nc(-n2ccc(OCc3ccccc3)cc2=O)sc1C(=O)NCc1ccccc1 [Example 2, N-Benzyl-2-(4-(benzyloxy)-2-oxopyridin-1(2H)-yl)-4-methylthiazole-5-carboxamide]
The melting point of the first is lower: 208 to 209 °C for the first, 219 to 220 °C for the second.

First: Cc1nc(-n2ccc(O)cc2=O)sc1C(=O)NCC1CC1 [Example 1.16, N-(Cyclopropylmethyl)-2-(4-hydroxy-2-oxopyridin-1(2H)-yl)-4-methylthiazole-5-carboxamide]
Second: CCOC(=O)c1sc(-n2ccc(O)cc2=O)nc1C [Example 14, Ethyl 2-(4-Hydroxy-2-oxopyridin-1(2H)-yl)-4-methylthiazole-5-carboxylate]
The melting point of the first is lower: 240 to 242 °C for the first, 270 to 273 °C for the second.

Compared with `CCOC(=O)c1[nH]c(-n2ccc(OCc3ccccc3)cc2=O)nc1C` [Example 12.2, Ethyl 2-(4-(benzyloxy)-2-oxopyridin-1(2H)-yl)-4-methyl-1H-imidazole-5-carboxylate], `CCOC(=O)c1sc(-n2ccc(OCc3ccc(F)cc3)cc2=O)nc1C` [Example 17.1, Ethyl 2-(4-(4-Fluorobenzyloxy)-2-oxopyridin-1(2H)-yl)-4-methylthiazole-5-carboxylate] is higher in melting point: 135 to 136 °C for the first, 214 to 217 °C for the second.

First: Cc1nc(-n2ccc(COc3ccccc3)cc2=O)sc1C(=O)NCc1ccccc1 [Example 3.18, N-Benzyl-4-methyl-2-(2-oxo-4-(phenoxymethyl)pyridin-1(2H)-yl)thiazole-5-carboxamide]
Second: Cc1nc(-n2ccc(NCc3ccccc3)cc2=O)sc1C(=O)NCc1ccccc1 [Example 5, N-benzyl-2-(4-(benzylamino)-2-oxopyridin-1(2H)-yl)-4-methylthiazole-5-carboxamide]
The melting point of the first is lower: 175 to 177 °C for the first, 253 to 255 °C for the second.

First: Cc1nc(-n2ccc(OCc3ccc(C(F)(F)F)cc3)cc2=O)sc1C(=O)NCc1ccccc1 [Example 9.8, N-Benzyl-4-methyl-2-(2-oxo-4-(4-(trifluoromethyl)benzyloxy)pyridin-1(2H)-yl)thiazole-5-carboxamide]
Second: Cc1cc(-n2ccc(OCc3ccc(C(F)(F)F)cc3)cc2=O)sc1C(=O)NCc1ccccc1 [Example 9.1, N-Benzyl-3-methyl-5-(2-oxo-4-(4-(trifluoromethyl)benzyloxy)pyridin-1(2H)-yl)thiophene-2-carboxamide]
The melting point of the first is higher: 278 to 280 °C for the first, 225 to 227 °C for the second.

First: Cc1nc(-n2ccc(OCc3ccccc3)cc2=O)sc1C(=O)NCc1ccc(F)c(F)c1 [Example 3.17, 2-(4-(Benzyloxy)-2-oxopyridin-1(2H)-yl)-N-(3,4-difluorobenzyl)-4-methylthiazole-5-carboxamide]
Second: Cc1nc(-n2ccc(OCc3ccc(F)cc3)cc2=O)sc1C(=O)NCc1ccc(F)cc1 [Example 1.14, N-(4-Fluorobenzyl)-2-(4-(4-fluorobenzyloxy)-2-oxopyridin-1(2H)-yl)-4-methylthiazole-5-carboxamide]
The melting point of the first is lower: 225 to 227 °C for the first, 249 to 251 °C for the second.

First: Cc1nc(-n2ccc(O)cc2=O)sc1C(=O)NCc1ccncc1 [Example 1.20, 2-(4-Hydroxy-2-oxopyridin-1(2H)-yl)-4-methyl-N-(pyridin-4-ylmethyl)thiazole-5-carboxamide]
Second: Cc1nc(-n2ccc(O)cc2=O)sc1C(=O)NCc1ccc(F)cc1 [Example 1.6, N-(4-Fluorobenzyl)-2-(4-hydroxy-2-oxopyridin-1(2H)-yl)-4-methylthiazole-5-carboxamide]
The melting point of the first is lower: 275 to 278 °C for the first, 280 to 282 °C for the second.

Compared with `Cc1nc(-n2ccc(OCC3CCCC3)cc2=O)sc1C(=O)NCc1ccccc1` [Example 9.10, N-Benzyl-2-(4-(cyclopentylmethoxy)-2-oxopyridin-1(2H)-yl)-4-methylthiazole-5-carboxamide], `Cc1nc(-n2ccc(OCC3CCCO3)cc2=O)sc1C(=O)NCc1ccccc1` (stereo not drawn) [Example 9.12, N-Benzyl-4-methyl-2-(2-oxo-4-((tetrahydrofuran-2-yl)methoxy)pyridin-1(2H)-yl)thiazole-5-carboxamide] is lower in melting point: 196 to 198 °C for the first, 181 to 183 °C for the second.

First: Cc1nc(-n2ccc(O)cc2=O)sc1C(=O)NCCc1ccc(F)cc1 [Example 1.18, N-(4-Fluorophenethyl)-2-(4-hydroxy-2-oxopyridin-1(2H)-yl)-4-methylthiazole-5-carboxamide]
Second: Cc1nc(-n2ccc(O)cc2=O)sc1C(=O)NCc1ccc(F)c(F)c1 [Example 1.19, N-(3,4-Difluorobenzyl)-2-(4-hydroxy-2-oxopyridin-1(2H)-yl)-4-methylthiazole-5-carboxamide]
The melting point of the first is lower: 225 to 227 °C for the first, 294 to 296 °C for the second.

Compared with `Cc1ccn(-c2nc(C)c(C(=O)NCc3ccccc3)s2)c(=O)c1` [Example 20, N-Benzyl-4-methyl-2-(4-methyl-2-oxopyridin-1(2H)-yl)thiazole-5-carboxamide], `Cc1nc(-n2ccc(N)cc2=O)sc1C(=O)NCc1ccccc1` [Example 3, 2-(4-Amino-2-oxopyridin-1(2H)-yl)-N-benzyl-4-methylthiazole-5-carboxamide] is higher in melting point: 145 to 147 °C for the first, 171 to 172 °C for the second.

First: Cc1nc(-n2ccnc(C)c2=O)sc1C(=O)NCc1ccccc1 [Example 3.1, N-Benzyl-4-methyl-2-(3-methyl-2-oxopyrazin-1(2H)-yl)thiazole-5-carboxamide]
Second: Cc1nc(-n2cccc(O)c2=O)sc1C(=O)NCc1ccccc1 [Example 7, N-Benzyl-2-(3-hydroxy-2-oxopyridin-1(2H)-yl)-4-methylthiazole-5-carboxamide]
The melting point of the first is lower: 186 to 187 °C for the first, 225 to 228 °C for the second.

First: COc1ccn(-c2nc(C)c(C(=O)NCc3cccnc3)s2)c(=O)c1 [Example 1.11, 2-(4-Methoxy-2-oxopyridin-1(2H)-yl)-4-methyl-N-(pyridin-3-ylmethyl)thiazole-5-carboxamide]
Second: Cc1nc(-n2ccc(OCCC3CC3)cc2=O)sc1C(=O)NCc1cccnc1 [Example 1.5, 2-(4-(2-Cyclopropylethoxy)-2-oxopyridin-1(2H)-yl)-4-methyl-N-(pyridin-3-ylmethyl)thiazole-5-carboxamide]
The melting point of the first is higher: 200 to 202 °C for the first, 170 to 172 °C for the second.

First: Cc1cc(-n2ccc(OCc3ccc(OC(F)F)cc3)cc2=O)sc1C(=O)NCc1ccccc1 [Example 9.3, N-Benzyl-5-(4-(4-(difluoromethoxy)benzyloxy)-2-oxopyridin-1(2H)-yl)-3-methylthiophene-2-carboxamide]
Second: Cc1cc(-n2ccc(OCc3ccccc3)cc2=O)sc1C(=O)NCc1ccccc1 [Example 8.1, N-Benzyl-5-(4-(benzyloxy)-2-oxopyridin-1(2H)-yl)-3-methylthiophene-2-carboxamide]
The melting point of the first is higher: 178 to 180 °C for the first, 153 to 154 °C for the second.

First: Cc1nc(-n2ccc(-c3ccc(Cl)cc3)cc2=O)sc1C(=O)NCc1ccccc1 [Example 10, N-Benzyl-2-(4-(4-chlorophenyl)-2-oxopyridin-1(2H)-yl)-4-methylthiazole-5-carboxamide]
Second: Cc1nc(-n2ccc(NC(=O)c3ccccc3)cc2=O)sc1C(=O)NCc1ccccc1 [Example 4, 2-(4-Benzamido-2-oxopyridin-1(2H)-yl)-N-benzyl-4-methylthiazole-5-carboxamide]
The melting point of the first is higher: 265 to 267 °C for the first, 246 to 248 °C for the second.

First: Cc1cc(-n2ccc(CCc3ccccc3)cc2=O)sc1C(=O)NCc1ccccc1 [Example 24, N-benzyl-3-methyl-5-(2-oxo-4-phenethylpyridine-1(2H)-yl)thiophene-2-carboxamide]
Second: Cc1cc(-n2ccc(OCCC3CC3)cc2=O)sc1C(=O)NCc1ccccc1 [Example 9, N-Benzyl-5-(4-(2-cyclopropylethoxy)-2-oxopyridin-1(2H)-yl)-3-methylthiophene-2-carboxamide]
The melting point of the first is higher: 145 to 146 °C for the first, 134 to 136 °C for the second.

First: Cc1cc(-n2ccc(O)cc2=O)sc1C(=O)NCc1cccc(F)c1 [Example 7.8, N-(3-Fluorobenzyl)-5-(4-hydroxy-2-oxopyridin-1(2H)-yl)-3-methylthiophene-2-carboxamide]
Second: Cc1nc(-n2ccc(C(F)(F)F)cc2=O)sc1C(=O)NCc1ccccc1 [Example 3.6, N-Benzyl-4-methyl-2-(2-oxo-4-(trifluoromethyl)pyridin-1(2H)-yl)thiazole-5-carboxamide]
The melting point of the first is lower: 140 to 142 °C for the first, 197 to 198 °C for the second.

Compared with `CCOC(=O)c1sc(-n2ccc(OCCC3CC3)cc2=O)nc1C` [Example 15.2, Ethyl 2-(4-(2-Cyclopropylethoxy)-2-oxopyridin-1(2H)-yl)-4-methylthiazole-5-carboxylate], `Cc1nc(-n2ccc(OCCC3CC3)cc2=O)sc1C(=O)NCc1ccc(F)cc1` [Example 1.4, 2-(4-(2-Cyclopropylethoxy)-2-oxopyridin-1(2H)-yl)-N-(4-fluorobenzyl)-4-methylthiazole-5-carboxamide] is lower in melting point: 188 to 190 °C for the first, 172 to 174 °C for the second.

Compared with `Cc1nc(-n2ccc(OCc3ccccc3)cc2=O)n(C)c1C(=O)NCc1ccccc1` [Example 1.9, N-Benzyl-2-(4-(benzyloxy)-2-oxopyridin-1(2H)-yl)-1,4-dimethyl-1H-imidazole-5-carboxamide], `Cc1nc(-n2ccc3c(OCc4ccccc4)cccc3c2=O)sc1C(=O)NCc1ccccc1` [Example 3.8, N-Benzyl-2-(5-(benzyloxy)-1-oxoisoquinolin-2(1H)-yl)-4-methylthiazole-5-carboxamide] is lower in melting point: 232 to 233 °C for the first, 225 to 226 °C for the second.

First: Cc1nc(-n2cccc(C(=O)Nc3ccccc3)c2=O)sc1C(=O)NCc1ccccc1 [Example 3.14, N-Benzyl-4-methyl-2-(2-oxo-3-(phenylcarbamoyl)pyridin-1(2H)-yl)thiazole-5-carboxamide]
Second: Cc1nc(-n2cc(C(F)(F)F)ccc2=O)sc1C(=O)NCc1ccccc1 [Example 3.4, N-Benzyl-4-methyl-2-(2-oxo-5-(trifluoromethyl)pyridin-1(2H)-yl)thiazole-5-carboxamide]
The melting point of the first is higher: 225 to 227 °C for the first, 148 to 149 °C for the second.

For `Cc1cc(-n2ccc(O)cc2=O)sc1C(=O)NCc1ccc(F)cc1` [Example 7.7, N-(4-Fluorobenzyl)-5-(4-hydroxy-2-oxopyridin-1(2H)-yl)-3-methylthiophene-2-carboxamide], the melting point was 95 °C (dec.).
